Measurements as given in patent publication US20090054333A1, “Peptide inhibitors of cyclin-dependent kinase activity and uses thereof” (priority 2006, published 2009).
Entries after “also recorded” stand apart in the source; their conditions may differ.

B1: Spacer: full-length pRb2/p130 spacer domain, amino acids 616-828 (SEQ ID NO:20) (protein, listed as Homo sapiens)
chain: VPTCEEVMPPQNLERADEICIAGSPLTPRRVTEVRADTGGLGRSITSPTTLYDRYSSPPASTTRRRLFVENDSPSDGGTPGRMPPQPLVNAVPVQNVSGETVSVTPVPGQTLVTMATATVTANNGQTVTIPVQGIANENGGITFFPVQVNVGGQAQAVTGSIQPLSAQALAGSLSSQQVTGTTLQVPGQVAIQQISPGGQQQKQGQSVTSSSN

Tests used:
NIH/3T3 cells = experiment: colony formation assay; type: cell-based; conditions: NIH/3T3 transfected with 5 μg pEF6/V5 construct; blasticidin S selection; colonies counted after eight days
Method: Colony formation assay: The effects of the pRb2/p130 spacer domain and 39 aa small peptide overexpression on cellular growth was examined by colony formation assays. Exponentially growing NIH/3T3 cells were seeded in 100-mm dishes at a density of 5×10^5 cells per 100 mm dish the day before transfection. Cells were transfected with 5 μg of pEF6/V5-spacer, pEF6/V5-Spa310 or the control vector pEF6/V5 carrying the brasticidin S-resistant gene (bsr) as a selectable marker gene. For selection, blasticidin S hydrochloride (Funakoshi, Tokyo, Japan) was added to the culture medium 48 h after transfection, at a final concentration of 10 μg/mL. After 6 days, 1×10^3 of blasticidin S-resistant cells in each well were plated in triplicate in 60-mm dishes, in order to evaluate their colony-forming ability. Cells were then incubated at 37° C. for eight days in a selecting medium containing blasticidin S hydrochloride at a final concentration of 10 μg/mL. Colonies, defined as groups of a minimum of 50 cells, were counted after staining with 2% methylene blue in 95% ethanol.
As presented in FIGS. 4a and 4b, the spacer region caused a decrease on the ability of the cells to form colonies of about 50% and the Spa310 of about 60%. […] After six days, an equal number of resistant cells were plated in 60-mm dishes and colony-forming ability was evaluated after eight days of continuous selection. […]

cdk2 = experiment: in vitro cdk2 kinase assay with GST-fusion proteins, histone H1 substrate; type: biochemical; design: key to Kinase assay (inhibitory effect on cdk2 activity): P=positive; N=negative; conditions: for Kinase assay (inhibitory effect on cdk2 activity): 0.1 μg GST-fusion protein, cdk2 immunoprecipitated from NIH/3T3; for inhibitory effect on cdk2 activity / histone H1 phosphorylation in vitro: GST-fusion protein added to cdk2 immunoprecipitate from NIH/3T3
Method: Constructs preparation: A prokaryotic expression vector pGEX-2T (Stratagene Inc., La Jolla Calif.) and polymerase chain reaction (PCR) were used to generate chimeric Glutathione-S-Transferase constructs. The primers used by PCR to amplify the fragments that were subcloned in the pGEX-2T were derived from the 5′ and 3′ ends of different regions of the spacer domain of […]. The mammalian expression vector pEF6/V5-His TOPO (Invitrogen Corp, Carlsbad, Calif.) was used to generate the constructs pEF6/V5-His-spacer and pEF6/V5-His-310 that express the correspondent genes with a C-terminal V5 epitope. The spacer and the 310 fragments were PCR-amplified with the respective primers (Table 1) to generate 3′ends of the cDNAs without stop codons and were subsequently subcloned into pEF6/V5-His TOPO (Invitrogen Corp, Carlsbad, Calif.) according to the manufacturer's instructions to obtain cDNAs coding for C-terminal fusion proteins. All generated constructs were confirmed by automated sequencing. Information regarding the primers is available upon request.
GST Fusion protein preparation: XL1-Blue bacteria carrying the pGEX-2T vectors were grown to mid log phase and then induced to express protein by adding 0.25 mM of isopropyl-1-thio-β-D-galactopyranoside (IPTG, Roche Applied Science, Indianapolis, Ind.). The cultures were shaken for 4 h; bacteria were then pelleted and resuspended in NENT buffer (20 mM Tris pH 8, 100 mM NaCl, 1 mM EDTA, 0.5% NP-40). Cell suspensions were sonicated, pelleted and the supernatant collected. The remaining bacteria were then resuspended in NENT buffer plus 2% of N-Lauryl-Sarcosine, pelleted and the supernatants were collected again. The combined supernatants were incubated with Glutathione agarose (Amersham Biosciences, Piscataway, N.J.) overnight at 4° C. The agarose was then pelleted and washed three times in NENT buffer.
Kinase assays: Cell lysates from NIH/3T3 were prepared by resuspending pelleted cells in 500 μl of lysis buffer (50 mM Tris, 5 mM EDTA, 250 mM NaCl, 50 mM NaF, 0.1% Triton, 0.1 mM Na3VO4, plus protease inhibitors). An equal amount of protein for each fraction (100 μg) was immunoprecipitated with a polyclonal anti-cdk2 antibody (De Luca et al., 1997, J Biol Chem, 272, 20971-4). The complexes were pulled down with protein A-Sepharose and washed three times with lysis buffer and twice with lysis buffer containing 400 mM NaCl. The complexes were equilibrated in kinase assay buffer (20 mM HEPES pH 7.4, 10 mM MgAc, […], 1 mM DTT). In order to detect the in vitro inhibition of cdk2 activity, each sample was incubated with an equal amount (0.1 μg) of each pGEX-2T fusion protein, in a final volume of 20 μl of kinase buffer, using 5 μCi/sample of γ-ATP (Amersham Biosciences, Piscataway, N.J.) and 2 μg of Histone H1 for 30 minutes at 30° C. Kinase assays were repeated at least three times, giving an inter assay standard deviation within 10% after normalization for protein amount. In order to evaluate the in vivo inhibition of cdk2 activity, cdk2 was immunoprecipitated, as described above, from NIH/3T3 cells transiently transfected with 5 μg of pEF6/V5-spacer, pEF6/V5-Spa310 or the vector alone as a control. The immunocomplexes were split in two tubes. A half of each sample was assayed for cdk2 activity in a final volume of 20 μl of kinase buffer with 5 μCi/sample of γ-ATP and 2 μg of Histone H1 for 30 min. at 30° C.; the second one was tested in western blot analysis to confirm that all the samples contained the amount of cdk2 immunoprecipitated. Briefly the samples were separated into 12% SDS polyacrylamide gels (SDS-PAGE), and then transferred into a nitrocellulose membrane (Schleicher & Schuell, Germany). The membrane was blocked with 5% non-fat dry milk in 1×TBST and incubated with the polyclonal anti-cdk2 antibody described above. […]

Row | Molecule | decrease on the ability of the cells to form colonies (NIH/3T3 cells) | Kinase assay (inhibitory effect on cdk2 activity) (cdk2) | inhibitory effect on cdk2 activity / histone H1 phosphorylation in vitro (cdk2)
1 | Spa310: pRb2/p130 amino acids 641-679 (39 amino acids long), SEQ ID NO:3; LTPRRVTEVRADTGGLGRSITSPTTLYDRYSSPPASTTR (listed as Homo sapiens) | about 60% | P | able to maintain the specific inhibitory ability; also recorded: strongly and similarly inhibited cdk2 activity
2 | B1 | about 50% | P | strongly and similarly inhibited cdk2 activity
